Measured values taken from the Deep4Chem optical property database.

Test: solvent given as SMILES

## O=C1/C(=C\c2ccc3oc4ccccc4c3c2)S(=O)(=O)c2ccccc21
In C1CCOC1
  absorption maximum: 368 nm
In C1COCCO1
  absorption maximum: 369 nm
In CC#N
  absorption maximum: 365 nm
In CC(C)=O
  absorption maximum: 365 nm
In CCOC(C)=O
  absorption maximum: 366 nm
In CN(C)C=O
  absorption maximum: 367 nm
In CO
  absorption maximum: 367 nm
In CS(C)=O
  absorption maximum: 369 nm
In Cc1ccccc1
  absorption maximum: 373 nm
In ClC(Cl)Cl
  absorption maximum: 378 nm
In ClCCl
  absorption maximum: 372 nm

## CCN(CC)c1ccc2c(c1)oc(=O)c1c(C)nc3c(c(-c4ccccc4)nn3C)c12
In ClCCl
  absorption maximum: 408 nm

## CCCc1ccc(C#Cc2cc(C#Cc3ccc(N(C)C)cc3)c3ccc4c(C#Cc5ccc(N(C)C)cc5)cc(C#Cc5ccc(CCC)cc5)c5ccc2c3c54)cc1
In ClCCl
  absorption maximum: 488 nm

## Cc1ccc2[nH]c(-c3ccc(-c4ccc(-c5ccc(-c6nc7cc(C)ccc7[nH]6)cc5)cc4)cc3)nc2c1
In CN(C)C=O
  absorption maximum: 351 nm

## CC(C)(C)c1ccc2c(c1)c1cc(C(C)(C)C)ccc1n2-c1ccccc1-c1nc(-c2ccccc2-n2c3ccc(C(C)(C)C)cc3c3cc(C(C)(C)C)ccc32)nc(-c2ccccc2P(=O)(c2ccccc2)c2ccccc2)n1
In C1CCOC1
  absorption maximum: 343.17 nm
In CC#N
  absorption maximum: 340.7 nm
In CC(C)=O
  absorption maximum: 343.17 nm
In CN(C)C=O
  absorption maximum: 343.17 nm
In Cc1ccccc1
  absorption maximum: 340.7 nm
In ClC(Cl)Cl
  absorption maximum: 343.17 nm
In ClCCl
  absorption maximum: 343.17 nm

## CC(=O)c1c2c(cc3ccc(N(C)C)cc13)CCC2
In C1CCCCC1
  absorption maximum: 373 nm
In C1CCOC1
  absorption maximum: 377 nm
In C1COCCO1
  absorption maximum: 376 nm
In CC#N
  absorption maximum: 375 nm
In CCO
  absorption maximum: 377 nm
In CS(C)=O
  absorption maximum: 377 nm
In Cc1ccccc1
  absorption maximum: 376 nm
In ClC(Cl)Cl
  absorption maximum: 377 nm
In ClCCl
  absorption maximum: 377 nm

## CC(=O)Nc1ccc(C2=N/C(=C\c3ccc(C#N)cc3)C(=O)O2)cc1
In C1COCCO1
  absorption maximum: 389 nm

## c1cc2ccc3ccc(-n4c5ccccc5c5ccccc54)c4ccc(c1)c2c34
In CCCCCC
  absorption maximum: 344 nm
In CCO
  absorption maximum: 344 nm
In CCOC(C)=O
  absorption maximum: 344 nm
In ClCCl
  absorption maximum: 347 nm

## c1ccc(C[n+]2cc3ccc4c[n+](Cc5ccccc5)cc5ccc(c2)c3c45)cc1
In CC#N
  absorption maximum: 421 nm

## C[Si]1(C)C2=C(c3ccc(N(c4ccccc4)c4ccccc4)cc31)P(=O)(c1ccccc1)c1ccccc12 (stereo not drawn)
In CC#N
  absorption maximum: 440 nm
In CO
  absorption maximum: 452 nm
In Cc1ccccc1
  absorption maximum: 446 nm

## O=C(O)CCCc1ccc2ccc3cccc4ccc1c2c34
In CO
  absorption maximum: 375 nm

## Fc1ccc(C2=NC(c3ccccc3)C(N(c3ccccc3)c3ccccc3)S2)cc1 (stereo not drawn)
In ClC(Cl)Cl
  absorption maximum: 363 nm

## Cc1cc(-n2c3ccccc3c3cc4c(cc32)C2c3ccccc3C4c3ccccc32)ccc1-c1nc(-c2ccccc2)nc(-c2ccccc2)n1
In Cc1ccccc1
  absorption maximum: 367 nm

## CC1=CC(C)=[N+]2C1=Cc1c3ccccc3c(C#Cc3ccc(F)cc3)n1[B-]2(F)F
In CCCCCC
  absorption maximum: 609 nm
In CCCCCCCCO
  absorption maximum: 613 nm
In CCOC(C)=O
  absorption maximum: 607 nm
In CN(C)C=O
  absorption maximum: 612 nm

## CC[N+](CC)=c1ccc2nc3c(cc(NCCC(=O)NC(C)C(=O)OC)c4ccccc43)oc-2c1 (stereo not drawn)
In CCO
  absorption maximum: 600 nm
In O
  absorption maximum: 580 nm

## CN1CCCc2cc(C3=Cc4cccc[n+]4[B-](F)(F)O3)ccc21
In ClC(Cl)Cl
  absorption maximum: 438 nm

## C[Si](C)(C)O[Si]1(O[Si](C)(C)C)n2c3c4ccccc4c2/N=C2N=C(/N=c4/c5ccccc5/c(n41)=N/C1=NC(=N\3)/c3ccccc31)c1ccccc1\2
In CN(C)C=O
  absorption maximum: 668 nm

## CCCCCCc1ccc2c3c(ccc2c1)O[B-](c1ccccc1)(c1ccccc1)[N+](c1ccc([N+]2=Cc4c(ccc5cc(CCCCCC)ccc45)O[B-]2(c2ccccc2)c2ccccc2)cc1)=C3
In C1CCOC1
  absorption maximum: 455 nm
In CC#N
  absorption maximum: 452 nm
In Cc1ccccc1
  absorption maximum: 462 nm
In ClCCl
  absorption maximum: 459 nm

## O=[N+]([O-])c1ccc(/C2=C3N=C(C(c4ccccc4)=C/3c3ccccc3)/C(c3ccc([N+](=O)[O-])cc3)=c3\[nH]/c(c(-c4ccccc4)c3-c3ccccc3)=C(/c3ccc([N+](=O)[O-])cc3)C3=N/C(=C(/c4ccc([N+](=O)[O-])cc4)c4[nH]c2c(-c2ccccc2)c4-c2ccccc2)C(c2ccccc2)=C3c2ccccc2)cc1
In ClCCl
  absorption maximum: 711 nm

## CS(=O)(=O)c1ccc(-c2cc3ccc(N)cc3c(=O)o2)cc1
In CC(C)=O
  absorption maximum: 358 nm
In CCCCCCCCO
  absorption maximum: 366 nm
In CCCCO
  absorption maximum: 366 nm
In CCCO
  absorption maximum: 366 nm
In CCOC(C)=O
  absorption maximum: 356 nm
In CN(C)C=O
  absorption maximum: 367 nm
In CO
  absorption maximum: 358 nm
In ClC(Cl)Cl
  absorption maximum: 351 nm

## C/N=N/C
In CCO
  absorption maximum: 340 nm

## O=C1O/C(=C\c2ccccc2)c2ccccc21
In CC#N
  absorption maximum: 335 nm

## CCCn1c(-c2cc(-c3nc4ccccc4n3CCC)cc(-c3nc4ccccc4n3CCC)c2)nc2ccccc21
In CS(C)=O
  absorption maximum: 301.5 nm

## N#Cc1ccc(-c2cc3c(ccc4sccc43)s2)cc1
In ClCCl
  absorption maximum: 346 nm

## c1ccc(-c2cccc3ncc(-c4ccccc4)n23)cc1
In ClCCl
  absorption maximum: 337 nm

## Cc1cc(-c2ccc(N(c3ccccc3)c3ccccc3)cc2)c2nsnc2c1-c1ccc(N(c2ccccc2)c2ccccc2)cc1
In ClCCl
  absorption maximum: 432 nm

## C1=Cc2nc1c(-c1cccs1)c1ccc([nH]1)c(-c1cccs1)c1nc(c(-c3cccs3)c3ccc([nH]3)c2-c2cccs2)C=C1
In CN(C)C=O
  absorption maximum: 661 nm
In ClCCl
  absorption maximum: 426 nm

## CCN(CC)c1ccc2cc(-c3cn4cc(C)ccc4n3)c(=O)oc2c1
In ClC(Cl)Cl
  absorption maximum: 424 nm

## c1ccc2[nH]ncc2c1
In C1CCCCC1
  absorption maximum: 294 nm

## Cc1cc(C)c(C2=C3C=C(/C=C/C(=O)OCc4ccccc4)C=[N+]3[B-](F)(F)n3cc(/C=C/C(=O)OCc4ccccc4)cc32)c(C)c1
In ClCCl
  absorption maximum: 576 nm

## CC1(C)CC(=O)c2c(F)c(F)c(F)c(F)c2N1
In CC#N
  absorption maximum: 360 nm

## COc1ccc(C(=Cc2ccc(/C=C(\C#N)c3ccccc3)cc2)c2ccc(OC)cc2)cc1
In C1CCOC1
  absorption maximum: 388 nm

## Fc1cc(-c2nc(-c3ccccc3)nc(-c3ccccc3)n2)ccc1-n1c2ccccc2c2c3c(ccc21)C1(c2ccccc2-c2ccccc21)c1ccccc1-3
In Cc1ccccc1
  absorption maximum: 370 nm

## CC1(C)C(/C=C/C2=C(c3ccc(C(=O)O)cc3)C(=C/C=C3/N(CCCCS(=O)(=O)[O-])c4ccccc4C3(C)C)/CC2)=[N+](CCCCS(=O)(=O)[O-])c2ccccc21
In CO
  absorption maximum: 797 nm

## Cc1ccc2c(c1)C1(c3ccccc3-c3ccccc31)c1cc(C)ccc1N2c1ccc2c(c1)Oc1ccccc1P2(=S)c1ccccc1 (stereo not drawn)
In Cc1ccccc1
  absorption maximum: 311.25 nm

## CCN(CC)c1ccc(-c2nc3c(nc2-c2ccc([B-](F)(c4c(C)cc(C)cc4C)c4c(C)cc(C)cc4C)cc2)c2ccccc2n3C)cc1
In C1CCOC1
  absorption maximum: 414.75 nm

## COC(=O)C1=C(C(=O)OC)C2(c3ccccc3-c3ccccc32)[C@@H](c2ccc(C)cc2)C=C2c3cc(OC)c(OC)cc3CCN21
In ClCCl
  absorption maximum: 311 nm

## CCCCCCCCCCCCCCCCCCOC(=O)/C=C/C1=CC2=C(c3c(C)cc(C)cc3C)c3cc(/C=C/C(=O)OCCCCCCCCCCCCCCCCCC)cn3[B-](F)(F)[N+]2=C1
In ClCCl
  absorption maximum: 578 nm

## CCCCCCCCC1(CCCCCCCC)c2cc(-c3ccc([N+](=O)[O-])cc3)ccc2-c2ccc(-c3ccc([N+](=O)[O-])cc3)cc21
In C1CCCCC1
  absorption maximum: 357 nm
In CCO
  absorption maximum: 368 nm
In CN(C)C=O
  absorption maximum: 380 nm
In CS(C)=O
  absorption maximum: 382 nm
In Cc1ccccc1
  absorption maximum: 365 nm
In ClC(Cl)Cl
  absorption maximum: 373 nm

## Cc1ccc(-c2c3ccc([nH]3)c3nc(c(-c4ccc(C#N)cc4)c4ccc([nH]4)c4ccc([nH]4)c(-c4ccc(C)cc4)c4ccc2o4)C=C3)cc1
In C1CCOC1
  absorption maximum: 451 nm
In Cc1ccccc1
  absorption maximum: 452 nm
In c1ccccc1
  absorption maximum: 452 nm

## Cc1cc(N2c3ccccc3C(C)(C)c3ccccc32)ccc1-c1cc(-c2ccc(N3c4ccccc4C(C)(C)c4ccccc43)cc2C)ncn1
In Cc1ccccc1
  absorption maximum: 375.94 nm

## COc1ccc(-c2ccc(-c3ccc(C#N)cc3)cc2)cc1
In C1CCCCC1
  absorption maximum: 305 nm

## CCC(C)(C)c1ccc(-c2ccc(-c3ccccc3)cc2)cc1
In C1COCCO1
  absorption maximum: 287 nm

## COc1ccc(OC)c(C=O)c1
In C1CCOC1
  absorption maximum: 349 nm
In C1COCCO1
  absorption maximum: 348 nm
In CC#N
  absorption maximum: 349 nm
In CC(C)=O
  absorption maximum: 349 nm
In CCCO
  absorption maximum: 352 nm
In CCO
  absorption maximum: 352 nm
In CN(C)C=O
  absorption maximum: 351 nm
In CN(C)P(=O)(N(C)C)N(C)C
  absorption maximum: 352 nm
In CNC=O
  absorption maximum: 352 nm
In CO
  absorption maximum: 352 nm
In CS(C)=O
  absorption maximum: 353 nm
In ClC(Cl)Cl
  absorption maximum: 352 nm
In NC=O
  absorption maximum: 356 nm

## COc1ccc(C2=C(c3ccc(OC)cc3)c3cccc4c5c(cc(c34)O2)=NC(C#N)C(C#N)N=5)cc1 (stereo not drawn)
In ClCCl
  absorption maximum: 511 nm

## COc1ccc(-n2nc(C#N)c(N3CCN(c4ccccn4)CC3)n2)cc1
In CC#N
  absorption maximum: 321 nm

## CC(=O)c1ccc(/C=C/C=C/C2=NC3C(=O)NC(N)=NC3N2[C@H]2C[C@H](O)[C@@H](CO)O2)cc1 (stereo partly drawn)
In CC#N
  absorption maximum: 392 nm
In CO
  absorption maximum: 388 nm

## c1ccc2c(-c3cc(-c4nccs4)nc(-c4nccs4)c3)cccc2c1
In CC#N
  absorption maximum: 324 nm
In CCCCCC
  absorption maximum: 325 nm
In CO
  absorption maximum: 325 nm
In ClC(Cl)Cl
  absorption maximum: 330 nm

## C(#Cc1c2ccccc2c(-c2ccccc2)c2cc3ccccc3cc12)c1ccccc1
In ClCCl
  absorption maximum: 522 nm

## Cc1cc(-c2ccccc2C)cc(C)[o+]1
In CC#N
  absorption maximum: 327 nm
In ClCCl
  absorption maximum: 343 nm

## CC(C)(C)Nc1cc(F)c(C(=O)c2cc(F)c(NC(C)(C)C)cc2F)cc1F
In CCO
  absorption maximum: 348 nm

## Nc1ccc2c(c1)C(=O)c1ccccc1-2
In C1CCCCC1
  absorption maximum: 455 nm
In CC#N
  absorption maximum: 481 nm
In CCO
  absorption maximum: 488 nm
In c1ccccc1
  absorption maximum: 469 nm

## Cc1nc2cc(/C=C/c3ccc(N(C)C)cc3)ccc2nc1-c1ccccc1
In C1COCCO1
  absorption maximum: 415 nm
In CC#N
  absorption maximum: 407 nm
In ClCCl
  absorption maximum: 407 nm

## C[Si](C)(C)C#CC(C#C[Si](C)(C)C)=Cc1ccc(C=C(C#C[Si](C)(C)C)C#C[Si](C)(C)C)cc1
In ClC(Cl)Cl
  absorption maximum: 412 nm

## CC(C)(C)c1ccc2oc3nc4oc5ccc(-n6c7ccccc7c7cc(-n8c9ccccc9c9ccccc98)ccc76)cc5c4cc3c2c1
In ClC(Cl)Cl
  absorption maximum: 348 nm
